# Assay results taken from PubChem BioAssay AID1918930 (Molecular Pharmacology Branch, DTP, NCI, 2023).
# Tested on: 233499-124-R-J3-PDC complex spheroid viability, % test/control
# Test: Anticancer human tumor 233499-124-R-J3-PDC patient-derived colon adenocarcinoma cell line growth inhibition
# Details: for IC50: curve of first compound; for viability, T/C: stronger effect = lower value
# Text: Multicellular complex tumor spheroid response to LSD1 Inhibitor Iadademstat in combination with a variety of drugs and investigational agents in selected tumor cell lines
# The current study was undertaken to assess response to LSD1 inhibitors in combination with standard-of-care drugs and investigational agents in solid tumor complex spheroid models as well as in the K-562 leukemia. Complex spheroids include a stromal component modeled by human endothelial cells (HUVEC) and fibroblasts modeled by human mesenchymal stem cells (MSCs). The concentration ranges selected for each drug and investigational agent were based upon clinically achievable concentrations if the clinical Cmax of the agent was known.
# Compounds. The drugs and investigational agents used in this study are listed on Table 1. All of the agents used, including staurosporine (NSC755774) and gemcitabine (NSC613327), were obtained from the Developmental Therapeutics Program, NCI. FDA-approved anticancer drugs are available from the NCI at http://dtp.nci.nih.gov/branches/dscb/oncology_drugset_explanation.html. Drugs and investigational agents were >95% pure by proton nuclear magnetic resonance (NMR) and liquid chromatography/mass spectrometry (LC/MS). Stock solutions were prepared at 400x in DMSO, stored at -70 degrees C, and diluted in fresh medium prior to their use. The final concentration of DMSO in cell culture wells never exceeded 0.25% (v/v). The FDA-approved anticancer drug set is available from the Developmental Therapeutics Program at https://dtp.cancer.gov/organization/dscb/obtaining/available_plates.htm. All drugs and investigational agents were tested over a range starting from a high concentration at or near the clinical Cmax and decreasing in half-log increments. If the clinical Cmax for an agent had not been determined, the highest concentration tested was 10 microM.
# Cell Lines. The patient-derived cancer cell (PDC) lines: 292921-168-R-J2-PDC, K24384-001-R-PDC, and 521955-158-R2-J5-PDC pancreatic carcinomas, 556581-035-R-J1 ovarian carcinoma, 324938-238-R-J1-PDC, 855422-203-R-J1-PDC and 883617-216-R-J1-PDC urothelial bladder carcinomas, 743489-274-T-PDC renal cell carcinoma, 138582-R-J1 Merkel cell tumor, K60290-347-R-J1 and K57222-313-R-J1-PDC glioblastomas, 653999-131-R-J2-PDC, LG0703-F948-PDC, and 349418-098-R-PDC non-small cell lung carcinomas, 885512-296-R-J2-PDC, 171881-019-R-J1-PDC breast carcinomas and 186277-243-T-J2-PDC and 233499-124-R-J2-PDC colon carcinomas were obtained from the NCI Patient-Derived Models Repository (PDMR, https://pdmr.cancer.gov). The established cell lines NCI/ADR-RES (RRID:CVCL_14520 and OVCAR-5 (RRID:CVCL_1628) ovarian carcinomas, 786-O (RRID:CVCL_1051) and A498 (RRID:CVCL_A498) renal cell carcinoma, NCI-H211 (ATCC, cat. CRL-5824; RRID:CVCL_1529), NCI-H196 (ATCC, cat. CRL-5823, RRID:CVCL_1509), SW 1271 (ATCC, cat. CRL-2177, RRID:CVCL_1716) and NCI-H1876 (ATCC, cat. CRL-5902, RRID:CVCL_1503) small cell lung carcinomas, MDA-MB-231 (RRID:CVCL_0062) and MDA-MB-468 (RRID:CVCL_0419)breast carcinomas (10-12). Pooled donor human umbilical vein endothelial cells (HUVEC, Lonza, cat. CC-2519) and human mesenchymal stem cells (hMSC, Lonza, cat. PT-2501) were purchased from Lonza (Walkersville, MD).
# Cell Culture. All cells were maintained in an incubator at 37 degrees C and 5% CO2 with 95% humidity. The PDC lines were cultured according to standard operating procedures established by the NCI PDMR (https://pdmr.cancer.gov). Briefly all PDCs were thawed and cultured in Matrigel-coated flasks prepared with a working solution of 1X Ham's F-12 nutrient mix, without supplementation (Invitrogen, Waltham, MA, cat. 11765054), 100 U/mL penicillin-streptomycin (Invitrogen, cat. 15140122), and 2.5% Matrigel (Corning Inc., Corning, NY, cat. 354248) for the first three passages. […]
# [1] = second compound 0.1 µM, first compound 0.0316 µM
# [2] = second compound 0.1 µM, first compound 0.1 µM
# [3] = second compound 0.1 µM, first compound 0.316 µM
# [4] = second compound 0.1 µM, first compound 1 µM
# [5] = second compound 0.316 µM, first compound 0.0316 µM
# [6] = second compound 0.316 µM, first compound 0.1 µM
# [7] = second compound 0.316 µM, first compound 0.316 µM
# [8] = second compound 0.316 µM, first compound 1 µM
# [9] = second compound 1 µM, first compound 0.0316 µM
# [10] = second compound 1 µM, first compound 0.1 µM
# [11] = second compound 1 µM, first compound 0.316 µM
# [12] = second compound 1 µM, first compound 1 µM
# [13] = second compound 3.16 µM, first compound 0.0316 µM
# [14] = second compound 3.16 µM, first compound 0.1 µM
# [15] = second compound 3.16 µM, first compound 0.316 µM
# [16] = second compound 3.16 µM, first compound 1 µM
# [17] = second compound 10 µM, first compound 0.0316 µM
# [18] = second compound 10 µM, first compound 0.1 µM
# [19] = second compound 10 µM, first compound 0.316 µM
# [20] = second compound 10 µM, first compound 1 µM
# [21] = second compound 0.1 µM, first compound 3.16 µM
# [22] = second compound 0.1 µM, first compound 10 µM
# [23] = second compound 0.316 µM, first compound 3.16 µM
# [24] = second compound 0.316 µM, first compound 10 µM
# [25] = second compound 1 µM, first compound 3.16 µM
# [26] = second compound 1 µM, first compound 10 µM
# [27] = second compound 3.16 µM, first compound 3.16 µM
# [28] = second compound 3.16 µM, first compound 10 µM
# [29] = second compound 10 µM, first compound 3.16 µM
# [30] = second compound 10 µM, first compound 10 µM
# 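Note: spheroids exposed to agents for one week before readout.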
SMILES,IC50 (second compound 0.1 µM) [µM],IC50 (second compound 0.316 µM) [µM],IC50 (second compound 1 µM) [µM],IC50 (second compound 3.16 µM) [µM],IC50 (second compound 10 µM) [µM],"viability, T/C [1] [%]","viability, T/C [2] [%]","viability, T/C [3] [%]","viability, T/C [4] [%]","viability, T/C [5] [%]","viability, T/C [6] [%]","viability, T/C [7] [%]","viability, T/C [8] [%]","viability, T/C [9] [%]","viability, T/C [10] [%]","viability, T/C [11] [%]","viability, T/C [12] [%]","viability, T/C [13] [%]","viability, T/C [14] [%]","viability, T/C [15] [%]",further results
CC1COCCN1c1cc(-c2ccnn2C)c2ccnc(-c3ccn[nH]3)c2n1 (stereo not given) + NC1CCC(NC2CC2c2ccccc2)CC1,0.0285,0.0577,0.019,0.0227,0.0175,46.1,45.4,25.4,30.7,63.8,39.1,30.1,33.6,32.8,33.9,21.9,28.5,39.9,30,18.1,"viability, T/C (second compound 0.1 µM, first compound 0.00316 µM): 86.8%; viability, T/C (second compound 0.1 µM, first compound 0.01 µM): 91.9%; viability, T/C (second compound 0.316 µM, first compound 0.00316 µM): 101%; viability, T/C (second compound 0.316 µM, first compound 0.01 µM): 79.2%; viability, T/C (second compound 1 µM, first compound 0.00316 µM): 87.3%; viability, T/C (second compound 1 µM, first compound 0.01 µM): 71.1%; viability, T/C (second compound 3.16 µM, first compound 0.00316 µM): 81.1%; viability, T/C (second compound 3.16 µM, first compound 0.01 µM): 71.2%; viability, T/C [16]: 22.2%; viability, T/C (second compound 10 µM, first compound 0.00316 µM): 79.5%; viability, T/C (second compound 10 µM, first compound 0.01 µM): 63.5%; viability, T/C [17]: 35%; viability, T/C [18]: 27.3%; viability, T/C [19]: 17.8%; viability, T/C [20]: 23.1%"
O=C(c1cc(Cc2n[nH]c(=O)c3ccccc23)ccc1F)N1CCN(C(=O)C2CC2)CC1 + NC1CCC(NC2CC2c2ccccc2)CC1,> 10,> 10,> 10,> 10,> 10,101,107,102,102,109,102,90.5,92.3,94.5,83.3,71.1,81.3,82.7,90.5,84.8,"viability, T/C [21]: 91.7%; viability, T/C [22]: 81.6%; viability, T/C [23]: 85.6%; viability, T/C [24]: 97.3%; viability, T/C [25]: 86.1%; viability, T/C [26]: 95%; viability, T/C [16]: 75.3%; viability, T/C [27]: 87.1%; viability, T/C [28]: 79.5%; viability, T/C [17]: 79.4%; viability, T/C [18]: 68.2%; viability, T/C [19]: 67.8%; viability, T/C [20]: 69.2%; viability, T/C [29]: 79.6%; viability, T/C [30]: 69%"
CC1COCCN1c1cc(C2(S(C)(=N)=O)CC2)nc(-c2ccnc3[nH]ccc23)n1 (stereo not given) + NC1CC1c1ccc(-c2cccc(O)c2)cc1,> 10,> 10,> 10,4.43,3.1,110,98.1,109,95.5,105,114,101,87.6,95.6,92.5,93.9,87.8,108,96.3,90.3,"viability, T/C [21]: 57%; viability, T/C [22]: 65.6%; viability, T/C [23]: 60.5%; viability, T/C [24]: 69.3%; viability, T/C [25]: 59.7%; viability, T/C [26]: 52.7%; viability, T/C [16]: 70.1%; viability, T/C [27]: 48.6%; viability, T/C [28]: 47.1%; viability, T/C [17]: 92.2%; viability, T/C [18]: 77.5%; viability, T/C [19]: 80.6%; viability, T/C [20]: 78.2%; viability, T/C [29]: 45.3%; viability, T/C [30]: 53.8%"
